From patent US20240158446A1, “CYCLIC COMPOUND HAVING SELECTIVE INHIBITORY ACTION ON KRAS OVER HRAS AND NRAS” (CHUGAI SEIYAKU KABUSHIKI KAISHA, priority 2021, published 2024)

Experiments:
[1] = molecular target: GDP-bound KRAS wild-type protein (Homo sapiens, UniProt P01116); assay: Binding to KRAS by surface plasmon resonance (SPR), Single Cycle Kinetics; settings: SPR, Single Cycle Kinetics, 1:1 binding model; GDP-bound KRAS wild-type protein; read-out: KRAS KD
[2] = molecular target: GDP-bound NRAS wild-type protein (Homo sapiens, UniProt P01111); assay: Binding to NRAS by surface plasmon resonance (SPR), Single Cycle Kinetics; settings: SPR; GDP-bound NRAS wild-type protein vs GDP-bound KRAS wild-type protein; KD ratio class
[3] = molecular target: GDP-bound HRAS wild-type protein (Homo sapiens, UniProt P01112); assay: Binding to HRAS by surface plasmon resonance (SPR), Single Cycle Kinetics; settings: SPR; GDP-bound HRAS wild-type protein vs GDP-bound KRAS wild-type protein; KD ratio class
[4] = tested on: human lung cancer strain NCI-H441;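 also: cell proliferation inhibition after four days measured by CellTiter-Glo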

GDP-bound HRAS wild-type protein, sequence (P01112 whole entry): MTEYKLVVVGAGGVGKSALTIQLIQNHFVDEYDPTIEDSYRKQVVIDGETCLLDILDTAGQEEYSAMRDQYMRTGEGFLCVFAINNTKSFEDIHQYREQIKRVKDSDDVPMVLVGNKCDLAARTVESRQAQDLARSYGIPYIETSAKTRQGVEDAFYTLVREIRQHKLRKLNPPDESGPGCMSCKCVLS
GDP-bound NRAS wild-type protein, sequence (P01111 whole entry): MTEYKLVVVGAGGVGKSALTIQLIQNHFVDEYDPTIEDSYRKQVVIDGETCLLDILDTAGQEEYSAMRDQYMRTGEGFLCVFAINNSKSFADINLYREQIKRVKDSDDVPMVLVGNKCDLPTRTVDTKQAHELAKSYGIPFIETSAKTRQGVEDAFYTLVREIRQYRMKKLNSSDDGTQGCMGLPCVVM
GDP-bound KRAS wild-type protein, sequence (P01116 whole entry): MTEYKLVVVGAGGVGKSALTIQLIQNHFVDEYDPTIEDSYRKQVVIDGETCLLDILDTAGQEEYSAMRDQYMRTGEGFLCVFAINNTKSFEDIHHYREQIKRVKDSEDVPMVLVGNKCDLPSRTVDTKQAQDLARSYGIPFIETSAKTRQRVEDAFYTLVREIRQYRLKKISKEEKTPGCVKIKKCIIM

Row | SMILES | Kd [1] | NRAS/KRAS (ratio of KD value for NRAS to KD value for KRAS) [2] | HRAS/KRAS (ratio of KD value for HRAS to KD value for KRAS) [3] | IC50 [4]
1 | CCO[C@@H]1C[C@H]2C(=O)NC3(CCCC3)C(=O)N(C)[C@@H](C(CC)CC)C(=O)N(C)[C@H](C(=O)N3CCCC3)CC(=O)N(C)[C@@H](COC)C(=O)N[C@@H]([C@@H](C)CC)C(=O)N(C)CC(=O)N(C)[C@H]3C/C=C\CCN(C3=O)[C@@H](CC3CCCCC3)C(=O)N(C)CC(=O)N[C@@H](CCc3cc(F)c(C(F)(F)F)c(F)c3)C(=O)N2C1 [PP1439] | 1.2 nM | AA (a compound having 20 or more is denoted as AA) | A (a compound having 10 or more and less than 20 is denoted as A) | 87.3 nM
2 | CCO[C@@H]1C[C@H]2C(=O)NC3(CCC3)C(=O)N(C)[C@@H](C(CC)CC)C(=O)N(C)[C@H](C(=O)N3CCCC3)CC(=O)N(C)[C@@H](COC)C(=O)N[C@@H]([C@@H](C)CC)C(=O)N(C)CC(=O)N(C)[C@H]3C/C=C\CCN(C3=O)[C@@H](CC3CCC(F)(F)CC3)C(=O)N(C)CC(=O)N[C@@H](CCc3cc(F)c(C(F)(F)F)c(F)c3)C(=O)N2C1 [PP1440] | 0.35 nM | AA (a compound having 20 or more is denoted as AA) | A (a compound having 10 or more and less than 20 is denoted as A) | 69.7 nM
3 | CCO[C@@H]1C[C@H]2C(=O)NC3(CCCC3)C(=O)N(C)[C@@H](C(CC)CC)C(=O)N(C)[C@H](C(=O)N3CCCC3)CC(=O)N(C)[C@@H](COC)C(=O)N[C@@H]([C@@H](C)CC)C(=O)N(C)CC(=O)N(C)[C@H]3C/C=C\CCN(C3=O)[C@@H](CC3CCC(F)(F)CC3)C(=O)N(C)CC(=O)N[C@@H](CCc3cc(F)c(C(F)(F)F)c(F)c3)C(=O)N2C1 [PP1441] | 0.7 nM | A (a compound having 10 or more and less than 20 is denoted as A) | A (a compound having 10 or more and less than 20 is denoted as A) | 87.6 nM
4 | CCO[C@@H]1C[C@H]2C(=O)NC3(CCC3)C(=O)N(C)[C@@H](C3CCCC3)C(=O)N(C)[C@H](C(=O)N3CCCC3)CC(=O)N(C)[C@@H](CC)C(=O)N[C@@H]([C@@H](C)CC)C(=O)N(C)CC(=O)N(C)[C@H]3C/C=C\CCN(C3=O)[C@@H](CC3CCCCC3)C(=O)N(C)CC(=O)N[C@@H](CCc3cc(F)c(C(F)(F)F)c(F)c3)C(=O)N2C1 [PP1443, (2S,8S,12R,14S,20S,23S,27S,30S,36S,38Z)-2-(cyclohexylmethyl)-20-cyclopentyl-8-[2-[3,5-difluoro-4-(trifluoromethyl)phenyl]ethyl]-12-ethoxy-27-ethyl-4,19,22,26,32,35-hexamethyl-30-[(1S)-1-methylpropyl]-23-(pyrrolidine-1-carbonyl)spiro[1,4,7,10,16,19,22,26,29,32,35-undecazatricyclo[34.5.1.0^10,14]dotetracont-38-ene-17,1′-cyclobutane]-3,6,9,15,18,21,25,28,31,34,42-undecone] | 0.15 nM | AA (a compound having 20 or more is denoted as AA) | A (a compound having 10 or more and less than 20 is denoted as A) | 34.8 nM
5 | CCO[C@@H]1C[C@H]2C(=O)NC3(CCC3)C(=O)N(C)[C@@H](C3CCCC3)C(=O)N(C)[C@H](C(=O)N3CCC3)CC(=O)N(C)[C@@H](CC)C(=O)N[C@@H]([C@@H](C)CC)C(=O)N(C)CC(=O)N(C)[C@H]3C/C=C\CCN(C3=O)[C@@H](CC3CCC(F)(F)CC3)C(=O)N(C)CC(=O)N[C@@H](CCc3cc(F)c(C(F)(F)F)c(F)c3)C(=O)N2C1 [PP1444] | 0.19 nM | A (a compound having 10 or more and less than 20 is denoted as A) | A (a compound having 10 or more and less than 20 is denoted as A) | 103 nM
6 | CCO[C@@H]1C[C@H]2C(=O)NC3(CCC3)C(=O)N(C)[C@@H](C3CCCC3)C(=O)N(C)[C@H](C(=O)N3CCC3)CC(=O)N(C)[C@@H](CC)C(=O)N[C@@H]([C@@H](C)CC)C(=O)N(C)CC(=O)N(C)[C@H]3C/C=C\CCN(C3=O)[C@@H](CC3CCCCC3)C(=O)N(C)CC(=O)N[C@@H](CCc3cc(F)c(C(F)(F)F)c(F)c3)C(=O)N2C1 [PP1445] | 0.27 nM | A (a compound having 10 or more and less than 20 is denoted as A) | A (a compound having 10 or more and less than 20 is denoted as A) | 92.8 nM
7 | CCO[C@@H]1C[C@H]2C(=O)NC3(CCC3)C(=O)N(C)[C@@H](C3CCCC3)C(=O)N(C)[C@H](C(=O)N(C)C)CC(=O)N(C)[C@@H](CC3CC3)C(=O)N[C@@H]([C@@H](C)CC)C(=O)N(C)CC(=O)N(C)[C@H]3C/C=C\CCN(C3=O)[C@@H](CC3CCCCC3)C(=O)N(C)CC(=O)N[C@@H](CCc3cc(F)c(C(F)(F)F)c(F)c3)C(=O)N2C1 [PP1446] | 0.2 nM | A (a compound having 10 or more and less than 20 is denoted as A) | A (a compound having 10 or more and less than 20 is denoted as A) | 32 nM
8 | CCO[C@@H]1C[C@H]2C(=O)NC3(CCC3)C(=O)N(C)[C@@H](C3CCCC3)C(=O)N(C)[C@H](C(=O)N(C)C)CC(=O)N(C)[C@@H](CC3CC3)C(=O)N[C@@H]([C@@H](C)CC)C(=O)N(C)CC(=O)N(C)[C@H]3C/C=C\CCN(C3=O)[C@@H](CC3CCC(F)(F)CC3)C(=O)N(C)CC(=O)N[C@@H](CCc3cc(F)c(C(F)(F)F)c(F)c3)C(=O)N2C1 [PP1447, (2S,8S,12R,14S,20S,23S,27S,30S,36S,38Z)-20-cyclopentyl-27-(cyclopropylmethyl)-2-[(4,4-difluorocyclohexyl)methyl]-8-[2-[3,5-difluoro-4-(trifluoromethyl)phenyl]ethyl]-12-ethoxy-N,N,4,19,22,26,32,35-octamethyl-30-[(1S)-1-methylpropyl]-3,6,9,15,18,21,25,28,31,34,42-undecaoxo-spiro[1,4,7,10,16,19,22,26,29,32,35-undecazatricyclo[34.5.1.0^10,14]dotetracont-38-ene-17,1′-cyclobutane]-23-carboxamide] | 0.12 nM | A (a compound having 10 or more and less than 20 is denoted as A) | A (a compound having 10 or more and less than 20 is denoted as A) | 28.9 nM
9 | CC[C@H](C)[C@@H]1NC(=O)[C@H](CC)N(C)C(=O)C[C@@H](C(=O)N(C)C)N(C)C(=O)[C@H](C2CCCC2)N(C)C(=O)C2(CCC2)NC(=O)[C@@H]2CC(F)(F)CN2C(=O)[C@H](CCc2cc(F)c(C(F)(F)F)c(F)c2)NC(=O)CN(C)C(=O)[C@H](CC2CCC(F)(F)CC2)N2CC/C=C\C[C@@H](C2=O)N(C)C(=O)CN(C)C1=O [PP1448, (2S,8S,14S,20S,23S,27S,30S,36S,38Z)-20-cyclopentyl-2-[(4,4-difluorocyclohexyl)methyl]-8-[2-[3,5-difluoro-4-(trifluoromethyl)phenyl]ethyl]-27-ethyl-12,12-difluoro-N,N,4,19,22,26,32,35-octamethyl-30-[(1S)-1-methylpropyl]-3,6,9,15,18,21,25,28,31,34,42-undecaoxo-spiro[1,4,7,10,16,19,22,26,29,32,35-undecazatricyclo[34.5.1.0^10,14]dotetracont-38-ene-17,1′-cyclobutane]-23-carboxamide] | 0.059 nM | A (a compound having 10 or more and less than 20 is denoted as A) | A (a compound having 10 or more and less than 20 is denoted as A) | 8.3 nM
